Assay results taken from patent US20120264159A1, “SCREENING SYSTEM FOR MODULATORS OF HER2 MEDIATED TRANSCRIPTION AND HER2 MODULATORS IDENTIFED THEREBY” (BUCK INSTITUTE FOR AGE RESEARCH, priority 2001, published 2012).
Values after ≈ are worked out from the molar mass of the structure shown. Starred links: 1 amine or outer side, 2 acyl side, 3 side chain; linkers in the order of their positions; H or OH if unused. Positions of bridges follow the written chain, without caps; N, C: chain ends. Non-standard residues stand in square brackets, D forms with d. Residues, ends and D or L forms follow the SMILES beside them. Chains are numbered I, II in the order given. Actinocin(9to1) = Cc1c2oc3c(C)ccc(C(=O)[*:1])c3nc-2c(C(=O)[*:2])c(N)c1=O; NMeV = CN[C@H](C(=O)O)C(C)C; Sar = CNCC(=O)O

Key:
[1] = tested on: RO6 HER2 promoter; test: Basal promoter activity of MDA-453 stable RO6 polyclonal populations; type: cell-based, human; conditions: 10 nM TPA in DMSO, 8 and 48 hr, presence of serum, compared with DMSO only
Experimental: (§1) Parental cell lines MCF-7, and MDA-453 were transfected with the construct Ro6pGL (FIG. 2) in conjunction with pcMneo construct using lipid-based transfection (Effectene) at a ratio of 20:1 reporter:selectable marker (see, FIG. 4). Monoclonal and polyclonal populations were selected in 0.5 mg/ml G418 over 2 to 4 weeks.
Reporter activity was assayed as follows: From T-150 or T-75 culture flasks, about […] cells/well were plated into a 96 well plate format for high-throughput screening. 24 hours post plating a test agent e.g. a drug from a combinatorial library, was added to the wells at various concentrations. Certain wells were used as controls (e.g. PBS or DMSO vehicle only). Replicate wells ([…] per drug concentration) were run. […] Parallel plates were run for cell viability using an MTT assay (Sigma).

[2] = tested on: RO6 HER2 promoter; test: Basal promoter activity of MCF-7b stable RO6 populations; type: cell-based, human; conditions: 10 nM, 24 hours, serum-free media, clone and polyclonal populations
Experimental: as §1
(§2) Reporter activity was assayed as follows: From T-150 or T-75 culture flasks, about […] cells/well were plated into a 96 well plate format for high-throughput screening. 24 hours post plating a test agent e.g. a drug from a combinatorial library, was added to the wells at various concentrations. Certain wells were used as controls (e.g. PBS or DMSO vehicle only). Replicate wells ([…] per drug concentration) were run. 24 hours after addition of the test agent the cells were lysed, a luciferase reagent was added and activity in each well was read using a high-throughput screening plate reader (labsystems Fluoroskan). Parallel plates were run for cell viability using an MTT assay (Sigma).

[3] = tested on: ErbB2 promoter; test: Genomically integrated ErbB2 promoter-luciferase reporter screen in MCF/R06pGL-9 cells; type: cell-based, human; conditions: 24 h treatment
Experimental: as §2
A luciferase reporter plasmid (designated RO6pGL-luc) was constructed by inserting the ˜500 bp SmaI-SmaI fragment of the human ErbB2 proximal promoter (12) into the pGL3Basic plasmid driving a luciferase reporter gene, as has been described (10). R06pGL-luc and a plasmid expressing neomycin phosphotransferase were co-transfected into the MCF-7 cells (ATCC) using Effectene (Qiagen). Cells were selected for stable expression of luciferase and neomycin (G418)-resistance. […] The reaction was quantified by absorbance at 570 nm measured with a microplate reader (Molecular Devices) and the mean (±SD) optical density recorded after normalization by the vehicle treated controls. […]

[4] = tested on: ErbB2 transcript; test: Northern blot of ErbB2 transcript levels in ErbB2 overexpressing breast cancer cells; type: cell-based, human
Experimental: The conserved and singular DNase I hypersensitivity sites found in the proximal ErbB2 and ESX promoters (12,15) were assayed as before (12). Briefly, following culture treatment of cells, nuclei isolated by mild detergent lysis in a buffer containing 10 mM Hepes pH 7.9, 1.5 mM MgCl2, 10 mM KCl, 0.4% NP-40, 10% glycerol and 1 mM DTT. Partial DNase I digestions were carried out by varying DNase I treatment times (0-15 minutes at 37( ) at a fixed DNase I concentrations (0.5-1.0 units per 10^6 nuclei). After purifying and restricting the DNA, it was electrophoresed through 0.7% agarose gels and blotted onto nylon membranes, UV-crosslinked and hybridized with randomly ^32P-labelled ErbB2 and ESX promoter probes, as similarly performed for routine Southern blotting. For Northern blotting, total (treated vs. control) cell RNA (10 μg/sample lane) was isolated using TRIzol (Invitrogen) according to manufacturer's specifications, electrophoresed into 1% agarose-formaldehyde gels and transferred onto membranes that were then hybridized with ^32P-labelled ErbB2 and ESX cDNA probes. For transcriptional run-off assays cell nuclei were first isolated from treated and control cells as described for the DNase I studies. Elongatation of initiated nascent RNA chains was performed at 37 (C for 30 minutes using ˜5×10^6 nuclei per reaction in a buffer containing 10 mM Tris pH7.5, 2.5 mM MgCl2, 150 mM KCl, 1 mM DTT, 10% glycerol, 0.5 mM ATP, GTP and CTP, and 100 μCi of [α-^32P]UTP (800 Ci/mmol). Nuclear RNA was purified by the addition of 100 units of RNase-free DNase I (Roche) per reaction for 2 minutes followed by TRIzol processing. Radiolabelled RNA was hybridized (˜4×10^6 cpm) at 68 (C in ExpressHyb (Clontech) for 24 hours to nylon filter membranes previously slotted with 0.5 μg per slot of unlabelled ErbB2 cDNA fragments (from either the transmembrane or C-terminal domains), ESX cDNA fragments, and empty plasmid control, as we have previously described (16). Filters were washed at 64 (C in 0.2 SSC and 0.5% SDS. For Western blotting, whole-cell extracts from control vs. treated cells were boiled in sample loading buffer (1% SDS, 20% glycerol, 100 mM DTT, 50 mM Tris, pH 6.8), gel lanes loaded for constant total protein (15 μg), electrophoresed into 9% sodium dodecyl sulfacte polyacrylamide (SDS-PAGE) gels, transferred onto membranes (Immobilon-P, Millipore), and the protein-bound membranes hybridized with a primary antibody followed by a horseradish peroxidase-conjugated secondary antibody (Sigma), and specific protein bands visualized by chemiluminescent substrate (Pierce), as previously described (10).

[5] = tested on: BT-474 cells; test: In vitro antitumor activity against ErbB2-amplified BT-474 cells; type: cell-based
Experimental: FIG. 9 illustrates validation of NSC-176328 antitumor selectivity. ErbB2-positive human cancer cells are 8.5-fold more sensitive to NSC-176328 than a panel of ErbB2-negative cancer cells. In vitro antitumor activity against ErbB2-amplified BT-474 cells of free and liposome- or immunoliposome-encapsulated Ellipticine (NSC-176328). 6-3-aminopropylellipticine (AE; NSC 176328) was administered to cell cultures as free drug or after being encapsulated into liposomes (L-AE) or immunoliposomes (ILS-AE); the former prevent escape and cell exposure to free AE, the latter specifically internalize into and release AE within ErbB2 overexpressing tumor cells.

[6] = tested on: NCI panel of 60 human cancer cell lines; conditions: free drug, cell lines not overexpressing ErbB2; cited from earlier work
[7] = tested on: ESX transcript; test: Northern blot of ESX transcript levels in SKBR3 cells; type: cell-based, human; conditions: 5 hours Act D
Experimental: The conserved and singular DNase I hypersensitivity sites found in the proximal ErbB2 and ESX promoters (12,15) were assayed as before (12). Briefly, following culture treatment of cells, nuclei isolated by mild detergent lysis in a buffer containing 10 mM Hepes pH 7.9, 1.5 mM MgCl2, 10 mM KCl, 0.4% NP-40, 10% glycerol and 1 mM DTT. Partial DNase I digestions were carried out by varying DNase I treatment times (0-15 minutes at 37( ) at a fixed DNase I concentrations (0.5-1.0 units per 10^6 nuclei). After purifying and restricting the DNA, it was electrophoresed through 0.7% agarose gels and blotted onto nylon membranes, UV-crosslinked and hybridized with randomly ^32P-labelled ErbB2 and ESX promoter probes, as similarly performed for routine Southern blotting. For Northern blotting, total (treated vs. control) cell RNA (10 μg/sample lane) was isolated using TRIzol (Invitrogen) according to manufacturer's specifications, electrophoresed into 1% agarose-formaldehyde gels and transferred onto membranes that were then hybridized with ^32P-labelled ErbB2 and ESX cDNA probes. For transcriptional run-off assays cell nuclei were first isolated from treated and control cells as described for the DNase I studies. […]

CCCCCCCCCCCCCC(=O)O[C@@H]1[C@@H](C)[C@@]2(O)[C@@H](C=C(CO)C[C@]3(O)C(=O)C(C)=C[C@@H]23)[C@@H]2C(C)(C)[C@]12OC(C)=O [TPA]
basal promoter activity [1]: no significant effect on basal promoter activity
basal promoter activity [2]: decreased basal promoter activity

CCCC(=O)[O-].[Na+] [sodium butyrate]
ErbB2 promoter-reporter (luciferase) activity [3]: significantly represses
ErbB2 transcript levels ([4]; 3 mM × 24 hours (data not shown)): Virtually complete elimination of ErbB2 transcript levels

Cc1c2cnccc2c(C)c2c1c1ccccc1n2CCCN [AE, 6-3-aminopropylellipticine]
sensitivity of ErbB2-positive vs ErbB2-negative cancer cells ([5]; BT-474 vs NCI panel of ErbB2-negative cancer cells): 8.5 fold
LC50 ([5]; free drug, ErbB2 overexpressing BT-474 cells): 200 µg/mL (≈ 659 µM)
average LC50 [6]: 1700 µg/mL

Cc1c2oc3c(C)ccc(C(=O)N[C@@H]4C(=O)N[C@H](C(C)C)C(=O)N5CCC[C@H]5C(=O)N(C)CC(=O)N(C)[C@@H](C(C)C)C(=O)O[C@@H]4C)c3nc-2c(C(=O)N[C@@H]2C(=O)N[C@H](C(C)C)C(=O)N3CCC[C@H]3C(=O)N(C)CC(=O)N(C)[C@@H](C(C)C)C(=O)O[C@@H]2C)c(N)c1=O [Act D, actinomycin D] (I: T[dV]P[Sar][NMeV] / II: T[dV]P[Sar][NMeV]; ester I:1-I:C, II:1-II:C; linker I:N-II:N via Actinocin(9to1))
ESX mRNA level [7]: complete loss of the short-lived ESX mRNA
ErbB2 mRNA level / decay ([4]; SKBR3 cells, 5 hours treatment, TSA 0.05 or 0.40 μM, Act D 10 μg/ml): only a slight reduction in ErbB2 mRNA level

C[C@@H]1C[C@@H]([C@H](O)CC2CC(=O)NC(=O)C2)C(=O)[C@@H](C)C1 [cycloheximide]
effect on TSA induced ErbB2 transcript decay ([4]; BT-474 or MDA-453 cells (data not shown)): no ability to arrest TSA induced ErbB2 transcript decay
ErbB2 transcript levels in control cells ([4]; SKBR3 cells, 50 μg/ml): no effect on ErbB2 transcript levels in control cells
effect on TSA induced accelerated ErbB2 mRNA degradation ([4]; SKBR3 cells, 50 μg/ml): completely inhibited the accelerated ErbB2 mRNA degradation induced by TSA
